Data on eleven compounds can be found in ChEMBL document CHEMBL1201862, “PubChem BioAssay data set” (2004).

Assay [1] concerns the target Mitogen-activated protein kinase 10 (Homo sapiens, UniProt P53779). Nature of the assay: Dose response biochemical screening assay for inhibitors of c-Jun N-Terminal Kinase 3 (JNK3). [Related pubchem assays: 746 ].
Assay [2] addresses Caspase-6 (Homo sapiens, UniProt P55212). Briefly: inhibition of CASP6 peptide cleavage – biochemical, VEID-R110 fluorescence, cherry-pick, dose response (AID 720632).
The target in assay [3] is Induced myeloid leukemia cell differentiation protein Mcl-1 (Homo sapiens, UniProt Q07820). Format: functional.
Chain of Induced myeloid leukemia cell differentiation protein Mcl-1 (Q07820 whole entry): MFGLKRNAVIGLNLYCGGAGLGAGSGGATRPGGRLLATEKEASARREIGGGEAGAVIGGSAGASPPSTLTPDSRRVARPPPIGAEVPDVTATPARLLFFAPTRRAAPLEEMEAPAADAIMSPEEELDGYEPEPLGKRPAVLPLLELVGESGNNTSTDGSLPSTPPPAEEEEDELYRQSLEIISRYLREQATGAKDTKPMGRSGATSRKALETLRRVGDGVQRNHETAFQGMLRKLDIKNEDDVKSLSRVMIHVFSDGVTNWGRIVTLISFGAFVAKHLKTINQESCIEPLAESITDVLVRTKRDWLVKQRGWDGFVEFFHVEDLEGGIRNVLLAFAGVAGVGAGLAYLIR
Assay [4] deals with fMet-Leu-Phe receptor (Homo sapiens, UniProt P21462). Briefly: formyl peptide receptor binders – dose response (AID 519). Format: functional.
Chain of fMet-Leu-Phe receptor (P21462 whole entry): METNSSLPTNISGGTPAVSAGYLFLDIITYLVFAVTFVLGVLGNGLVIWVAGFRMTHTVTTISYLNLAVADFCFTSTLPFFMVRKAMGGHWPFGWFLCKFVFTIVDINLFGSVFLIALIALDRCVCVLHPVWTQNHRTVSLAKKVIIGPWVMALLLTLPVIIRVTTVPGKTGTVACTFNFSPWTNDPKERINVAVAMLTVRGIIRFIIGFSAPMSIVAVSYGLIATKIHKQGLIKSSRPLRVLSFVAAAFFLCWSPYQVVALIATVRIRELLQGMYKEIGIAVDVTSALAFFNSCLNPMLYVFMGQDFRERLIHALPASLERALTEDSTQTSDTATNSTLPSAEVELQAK
Assay [5] deals with Cytochrome P450 3A4 (Homo sapiens, UniProt P08684).
Chain of Cytochrome P450 3A4 (P08684 whole entry): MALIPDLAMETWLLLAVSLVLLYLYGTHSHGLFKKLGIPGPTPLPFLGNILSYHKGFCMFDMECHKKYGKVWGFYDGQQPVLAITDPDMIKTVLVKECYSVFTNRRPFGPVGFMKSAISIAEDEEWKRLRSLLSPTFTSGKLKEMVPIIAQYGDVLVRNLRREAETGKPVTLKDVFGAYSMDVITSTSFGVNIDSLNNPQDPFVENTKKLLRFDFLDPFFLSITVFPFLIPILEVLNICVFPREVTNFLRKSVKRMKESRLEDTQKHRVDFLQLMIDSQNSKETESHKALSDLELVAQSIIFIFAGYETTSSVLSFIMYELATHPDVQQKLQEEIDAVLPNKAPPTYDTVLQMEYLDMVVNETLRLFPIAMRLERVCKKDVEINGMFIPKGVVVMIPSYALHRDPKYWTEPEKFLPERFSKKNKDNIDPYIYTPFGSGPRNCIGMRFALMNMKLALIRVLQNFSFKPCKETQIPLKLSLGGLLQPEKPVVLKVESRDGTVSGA
The nature of assay [6]: blockade of melanocortin 4 receptor signaling – cell-based, plate reader, cherry pick, counter-screen for LGR2 antagonist project, dose response (AID 743444).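 Note: transfected HEK 293 cells stimulated with alpha-MSH peptide; potency of inhibitors of the alpha-MSH evoked signal.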 The format is functional. For orientation: A counterscreen serves to expose hits that act by an unwanted route or on another target.
Assay [7] can be described thus: viability loss in HEK293 cells – cell-based, plate reader, cherry-picked samples, cytotoxicity control, dose response (AID 743446). Format: functional.
Assay [8] in a line: blockers of bursicon-stimulated LGR2 cAMP reporter – cell-based, HEK293, CRE-luciferase reporter, cherry pick, set 2, dose response (AID 743343).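 Note: transfected cells were stimulated with diluted bursicon conditioned medium after compound addition.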 The format is functional. (Reporter assays use an easily measured gene product as a stand-in for the process of interest.)
Assay [9] is described as follows: cytotoxicity toward Colo320 cells – cell-based, CellTiter-Glo luminescence, IC50, dose response (AID 1117334). The format is functional. The settings on record: COLO 320. In general terms: In ATP-based viability assays light output follows the ATP content of the culture.
A short description of assay [10]: RKO cell viability reduction, dose response, CellTiter-Glo luminescence (AID 1117322). The format is functional.
A short description of assay [11]: cytotoxicity toward HT-29 cells – cell-based, CellTiter-Glo luminescence, IC50, dose response (AID 1117330). The format is functional.
Assay [12] can be described thus: cytotoxicity toward HCT116 cells – cell-based, CellTiter-Glo luminescence, IC50, dose response (AID 1117332). The format is functional. The settings on record: HCT-116.
Assay [13] in a line: SNU-C1 cell viability reduction, dose response, CellTiter-Glo luminescence (AID 1117323). The format is functional, cell-based.
Assay [14] can be described thus: HCT116 cell viability decrease, GSK3B pretreatment – CellTiter-Glo, IC50, dose response (AID 1117339). The settings on record: HCT-116. Format: functional.
Assay [15] in a line: Reduced DLD-1 viability, concentration-response, CellTiter-Glo luminescence (AID 1117352). Format: functional.
Assay [16] is described as follows: CellTiter-Glo luminescence survival assay, SW480 colon tumor line, concentration-response curve, half-maximal inhibitory concentration (AID 1117338). The format is functional.
Assay [17] deals with T1, Oxysterols receptor LXR-beta (Homo sapiens, UniProt P55055).
T1 sequence (P55055 whole entry): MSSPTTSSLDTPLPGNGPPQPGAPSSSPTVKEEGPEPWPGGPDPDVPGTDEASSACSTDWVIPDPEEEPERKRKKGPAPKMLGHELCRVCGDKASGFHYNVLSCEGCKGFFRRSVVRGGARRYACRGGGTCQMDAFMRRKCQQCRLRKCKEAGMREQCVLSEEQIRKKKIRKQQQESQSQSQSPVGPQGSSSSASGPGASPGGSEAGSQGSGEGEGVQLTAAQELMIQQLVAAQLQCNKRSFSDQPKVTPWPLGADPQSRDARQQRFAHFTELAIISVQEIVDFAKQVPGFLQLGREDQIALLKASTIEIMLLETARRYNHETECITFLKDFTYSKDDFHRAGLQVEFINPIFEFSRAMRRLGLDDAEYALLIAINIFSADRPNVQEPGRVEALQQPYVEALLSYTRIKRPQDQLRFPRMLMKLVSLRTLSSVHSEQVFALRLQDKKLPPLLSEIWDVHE
Briefly: LXR agonists, Gal4 luciferase reporter, dose response, counter-screen for ssDAF-12 agonist project, cell-based, luminescence, HEK293, S. stercoralis campaign (AID 720737). The format is functional. The settings on record: read-out: IC50 (the source's name).

A short description of assay [18]: Luminescence-based cell-based high throughput dose response assay to identify activators of the DAF-12 from the parasite S. stercoralis (ssDAF-12). The format is functional.
In assay [19] the target is Sphingosine 1-phosphate receptor 2 (Homo sapiens, UniProt O95136). Briefly: Dose Response Cell Based Assay for Antagonists of the S1P2 Receptor. [Related pubchem assays: 856, 736 ]. Format: functional.
Chain of Sphingosine 1-phosphate receptor 2 (O95136 whole entry): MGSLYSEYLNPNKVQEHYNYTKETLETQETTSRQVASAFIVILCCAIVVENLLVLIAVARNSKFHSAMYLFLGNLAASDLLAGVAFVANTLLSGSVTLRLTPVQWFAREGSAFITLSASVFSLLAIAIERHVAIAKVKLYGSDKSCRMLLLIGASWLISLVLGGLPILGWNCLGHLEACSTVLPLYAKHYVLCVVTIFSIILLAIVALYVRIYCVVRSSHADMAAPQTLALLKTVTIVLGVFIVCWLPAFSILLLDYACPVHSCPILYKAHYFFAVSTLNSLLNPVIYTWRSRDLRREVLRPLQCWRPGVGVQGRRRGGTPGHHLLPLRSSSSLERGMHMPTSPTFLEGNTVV
For assay [20], the target named is Galanin receptor type 2 (Homo sapiens, UniProt O43603). Briefly: Dose Response cell-based high-throughput screening assay to identify antagonists of galanin receptor 2 (GALR2). [Related pubchem assays: 828, 866 ]. The format is functional.
Chain of Galanin receptor type 2 (O43603 whole entry): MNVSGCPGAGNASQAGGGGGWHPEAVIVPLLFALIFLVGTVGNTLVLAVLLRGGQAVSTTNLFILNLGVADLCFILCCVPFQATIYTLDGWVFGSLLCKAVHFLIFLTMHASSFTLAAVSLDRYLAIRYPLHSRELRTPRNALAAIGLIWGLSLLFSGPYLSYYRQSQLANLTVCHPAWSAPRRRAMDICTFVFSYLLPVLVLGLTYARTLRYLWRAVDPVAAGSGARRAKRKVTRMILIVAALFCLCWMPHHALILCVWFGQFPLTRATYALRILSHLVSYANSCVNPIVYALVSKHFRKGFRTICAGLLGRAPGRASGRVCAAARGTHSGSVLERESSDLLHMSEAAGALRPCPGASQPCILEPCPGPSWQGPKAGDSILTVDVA
A short description of assay [21]: rise of 2N DNA cells, HeLa – IC50, dose response (AID 1117349). Format: functional, cell-based.
Assay [22] can be described thus: rise of 4N DNA cells, HeLa – IC50, dose response (AID 1117351). The format is functional, cell-based.
The target in assay [23] is Heat shock protein HSP 90-alpha (Homo sapiens, UniProt P07900). Nature of the assay: Luminescence-based dose response biochemical high throughput screening assay for inhibitors of the Heat Shock Protein 90 (HSP90). [Related pubchem assays: 1831 (Summary AID.), 1846 (Confirmation screen.), 1789 (Primary screen.)].
The target in assay [24] is Protein Tat (Human immunodeficiency virus type 1 group M subtype B (isolate HXB2)(HIV-1), UniProt P04608). Format: functional.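 Note: tat binding to TAR RNA read out by fluorescence polarization.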
Chain of Protein Tat (P04608 whole entry): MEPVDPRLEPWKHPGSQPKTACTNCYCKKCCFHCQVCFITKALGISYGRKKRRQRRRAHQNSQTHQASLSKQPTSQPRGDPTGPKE

The source made the active and inactive calls.

Chain of Caspase-6 (P55212 24-179 limits assumed): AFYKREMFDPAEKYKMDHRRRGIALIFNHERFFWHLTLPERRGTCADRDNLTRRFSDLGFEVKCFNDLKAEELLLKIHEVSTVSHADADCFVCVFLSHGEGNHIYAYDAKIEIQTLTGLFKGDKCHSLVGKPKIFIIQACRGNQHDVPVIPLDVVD
Chain of Caspase-6 (P55212 194-293 limits assumed): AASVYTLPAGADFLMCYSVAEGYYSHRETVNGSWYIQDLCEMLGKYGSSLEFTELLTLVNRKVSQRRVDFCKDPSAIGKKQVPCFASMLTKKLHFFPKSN
Chain of Mitogen-activated protein kinase 10 (P53779 whole entry): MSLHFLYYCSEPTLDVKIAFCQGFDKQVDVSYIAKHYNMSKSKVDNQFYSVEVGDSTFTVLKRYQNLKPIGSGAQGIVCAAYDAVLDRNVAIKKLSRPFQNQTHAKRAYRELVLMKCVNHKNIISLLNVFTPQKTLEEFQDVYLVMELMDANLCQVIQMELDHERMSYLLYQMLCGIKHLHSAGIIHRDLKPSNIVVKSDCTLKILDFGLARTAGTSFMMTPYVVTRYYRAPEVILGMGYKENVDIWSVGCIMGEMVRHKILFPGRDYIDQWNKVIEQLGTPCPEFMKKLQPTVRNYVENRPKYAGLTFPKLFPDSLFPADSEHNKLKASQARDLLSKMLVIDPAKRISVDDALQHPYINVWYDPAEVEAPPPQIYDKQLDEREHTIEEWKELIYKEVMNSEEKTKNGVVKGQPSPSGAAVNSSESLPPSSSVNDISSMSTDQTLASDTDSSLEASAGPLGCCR

On to `Cc1cccc(-n2ncc3c(NCc4cccs4)ncnc32)c1`, for which the IC50 (commonly the concentration that inhibits the measured activity by half) in [1] is recorded as 72 µM (not active).

On to `O=Cc1ccc(Oc2nc(Cl)ncc2F)cc1`, for which the half-maximal activity concentration (AC50) – broadly, the concentration giving half of the maximal activity seen – in assay [2] was 9.13 µM (active).

Regarding `O=C(NC1CCCCC1)c1sc(=S)n2c1[nH]c(=O)c1ccccc12`, the 50% inhibitory concentration (IC50) in assay [3] is > 54 µM (active). Also, the Ki – broadly, a measure of affinity in units of concentration, obtained from inhibition or displacement – in assay [4] was 40.6 µM (inactive). Moreover, the AC50 in assay [5] was 0.794 µM (inconclusive).

For the compound `FC(F)(F)c1cccc(CC2CN(Cc3ccccc3)Cc3ccccc3N2c2cc(Cl)cc(Cl)c2)c1` (centres undefined), the AC50 in assay [6] was 12.5 µM (active); in assay [7], > 52 µM (inactive); in [8] it was 22.2 µM (active).

Turning to `Cc1cccc(C)c1NC(=O)CC12CCCN1CCC2` [PILSICAINIDE], the IC50 in [9], in assay [10], in assay [11], in assay [12], in assay [13] and in assay [14] was > 20 µM (inactive) each time. For the same compound, the IC50 in assay [15] and in assay [16] was > 20 µM (inactive) each time.

Regarding `O=C(Cc1c[nH]c2ccccc12)NNCc1ccc(N(CCCl)CCCl)cc1`, the EC50 in assay [17] is > 67.5 µM (inactive). Further, in assay [18], the IC50 was > 67.5 µM (inactive).

Regarding `O=C(Nc1ccc(F)cc1)c1sccc1S(=O)(=O)Cc1cccc(C(F)(F)F)c1`, in assay [19], the concentration for half-maximal inhibition (IC50) is reported as 18.4 µM (not active).

Consider `O=C(Nc1ccc2[nH]c(-c3cccnc3)nc2c1)C12CC3CC(CC(C3)C1)C2`, for which the IC50 in assay [20] is given as > 42 µM (not active).

For `CCCCCCCCCCOCC(O)CN` (centres undefined), the IC50 in assay [21] and in assay [22] was > 10 µM (inactive) throughout.

On to `C=CCc1ccc(OCc2ccc(C(=O)OC)o2)c(OC)c1`, for which the 50% inhibitory concentration (IC50) in assay [23] was 7.02 µM (active).

As to `CCOC(=O)C1=C(O)/C(=C/c2ccc(CNC(=O)C(=O)Nc3ccc(C)cc3)o2)N=C1C`, the half-maximal inhibitory concentration (IC50) in assay [24] was 47.8 µM (inconclusive).
